For 37 compounds, pest or weed control, chromatographic logP and LogP results are on record in patent publication US11213031B2, “Tetrazolylpropyl derivatives and their use as fungicides” (BAYER AKTIENGESELLSCHAFT, priority 2017, dated 2022).

Like-named read-outs stand apart in the source and are kept apart here.

The subject of one data set is Uromyces appendiculatus. The data set can be described thus: In vivo preventive test on Uromyces appendiculatus (bean rust). The settings on record: 264 h, 500 ppm of active ingredient, bean plants sprayed 24 hours before inoculation, evaluated 11 days after inoculation, read-out: efficacy. The method, then:
(§1) Solvent: 5% by volume of Dimethyl sulfoxide • 10% by volume of Acetone
(§2) Emulsifier: 1 μl of Tween® 80 per mg of active ingredient
(§3) The active ingredients were made soluble and homogenized in a mixture of Dimethyl sulfoxide/Acetone/Tween® 80 and then diluted in water to the desired concentration.
The young plants of bean were treated by spraying the active ingredient prepared as described above. Control plants were treated only with an aqueous solution of Acetone/Dimethyl sulfoxide/Tween® 80.
After 24 hours, the plants were contaminated by spraying the leaves with an aqueous suspension of Uromyces appendiculatus spores. The contaminated bean plants were incubated for 24 hours at 20° C. and at 100% relative humidity and then for 10 days at 20° C. and at 70-80% relative humidity.
The test was evaluated 11 days after the inoculation. 0% means an efficacy which corresponds to that of the control plants while an efficacy of 100% means that no disease was observed.

The nature of data set [1]: Log P by HPLC on reversed phase columns (EEC directive 79/831 Annex V.A8). Type of data set: physicochemical. The method, then: Measurement of Log P values was performed according to EEC directive 79/831 Annex V.A8 by HPLC (High Performance Liquid Chromatography) on reversed phase columns with the following methods: • ^[a]Log P value is determined by measurement of LC-UV, in an acidic range, with 0.1% formic acid in water and acetonitrile as eluent (linear gradient from 10% acetonitrile to 95% acetonitrile). • ^[b]Log P value is determined by measurement of LC-UV, in a neutral range, with 0.001 molar ammonium acetate solution in water and acetonitrile as eluent (linear gradient from 10% acetonitrile to 95% acetonitrile). • ^[c]Log P value is determined by measurement of LC-UV, in an acidic range, with 0.1% phosphoric acid and acetonitrile as eluent (linear gradient from 10% acetonitrile to 95% acetonitrile).
If more than one Log P value is available within the same method, all the values are given and separated by “+”.
Calibration was done with straight-chain alkan2-ones (with 3 to 16 carbon atoms) with known Log P values (measurement of Log P values using retention times with linear interpolation between successive alkanones). Lambda-max-values were determined using UV-spectra from 200 nm to 400 nm and the peak values of the chromatographic signals.

Another data set concerns Sphaerotheca fuliginea. Briefly: In vivo preventive test on Sphaerotheca fuliginea (powdery mildew on cucurbits). The note with it: Podosphaera fuliginea, 192 h; 500 ppm of active ingredient; gherkin plants sprayed 24 hours before inoculation; evaluated 8 days after inoculation; read-out: efficacy. The method, then: as §1, §2, §3
The young plants of gherkin were treated by spraying the active ingredient prepared as described above. Control plants were treated only with an aqueous solution of Acetone/Dimethyl sulfoxide/Tween® 80.
After 24 hours, the plants were contaminated by spraying the leaves with an aqueous suspension of Sphaerotheca fuliginea spores. The contaminated gherkin plants were incubated for 8 days at 20° C. and at 70-80% relative humidity.
The test was evaluated 8 days after the inoculation. 0% means an efficacy which corresponds to that of the control plants while an efficacy of 100% means that no disease was observed.

Another data set has as its system Septoria tritici. The data set can be described thus: In vivo preventive test on Septoria tritici (leaf spot on wheat). The note with it: Zymoseptoria tritici, 456 h; 500 ppm of active ingredient; wheat plants sprayed 24 hours before inoculation; evaluated 19 days after inoculation; read-out: efficacy. On the procedure: as §1, §2, §3
The young plants of wheat were treated by spraying the active ingredient prepared as described above. Control plants were treated only with an aqueous solution of Acetone/Dimethyl sulfoxide/Tween® 80.
After 24 hours, the plants were contaminated by spraying the leaves with an aqueous suspension of Septoria tritici spores. The contaminated wheat plants were incubated for 72 hours at 17° C. and at 100% relative humidity and then for 15 days at 20° C. and at 90% relative humidity.
The test was evaluated 19 days after the inoculation. 0% means an efficacy which corresponds to that of the control plants while an efficacy of 100% means that no disease was observed.

The mark [2] stands for this setting: method [a]: LC-UV, acidic range, 0.1% formic acid in water and acetonitrile as eluent.

As to `OC(Cc1ccccc1)(Cn1cnnn1)C1(Cl)CC1` (centres unmarked) [Ia-01, 2-(1-chlorocyclopropyl)-1-phenyl-3-(tetrazol-1-yl)propan-2-ol], the pest or weed control at 500 ppm in the data set with Uromyces appendiculatus lay in the range of 90 to 100%; in the data set on Sphaerotheca fuliginea it was 90 to 100%; in the data set on Septoria tritici, 70 to 79%. For the same compound, the chromatographic logP in data set [1] (setting [2]) was 2.41.
Turning to `CC(c1ccccc1F)C(O)(Cn1cnnn1)C1(Cl)CC1` (single isomer, unassigned) [Ia-22, 2-(1-chlorocyclopropyl)-3-(2-fluorophenyl)-1-(tetrazol-1-yl)butan-2-ol], the LogP in data set [1] (setting [2]) was 2.80^[a]. Besides, in the data set on Septoria tritici, the pest or weed control at 500 ppm lay within 90 to 100%.
As to `OC(Cc1ccccc1F)(Cn1ncnn1)C1(Cl)CC1` (centres unmarked) [Ib-02, 2-(1-chlorocyclopropyl)-1-(2-fluorophenyl)-3-(tetrazol-2-yl)propan-2-ol], the pest or weed control at 500 ppm in the data set with Uromyces appendiculatus, in the data set on Sphaerotheca fuliginea and in the data set on Septoria tritici was 90 to 100% each time. This compound displayed a chromatographic logP in data set [1] (setting [2]) of 2.86.
`OC(Cc1cccnc1Cl)(Cn1ncnn1)C1(Cl)CC1` (centres unmarked) [Ib-05, 2-(1-chlorocyclopropyl)-1-(2-chloro-3-pyridyl)-3-(tetrazol-2-yl)propan-2-ol]: the results for the pest or weed control at 500 ppm with Uromyces appendiculatus, in the data set on Sphaerotheca fuliginea and in the data set with Septoria tritici were 70 to 79%, 90 to 100% and 90 to 100%, respectively. The chromatographic logP in data set [1] (setting [2]) came to 2.03.
Take `OC(Cc1ccccc1Cl)(Cn1cnnn1)C1(Cl)CC1` (centres unmarked) [Ia-05, 2-(1-chlorocyclopropyl)-1-(2-chlorophenyl)-3-(tetrazol-1-yl)propan-2-ol]: the pest or weed control at 500 ppm in the data set with Uromyces appendiculatus, with Sphaerotheca fuliginea and with Septoria tritici was 90 to 100% throughout. Moreover, the chromatographic logP in data set [1] (setting [2]) was 2.65.
As to `OC(Cc1cccnc1Cl)(Cn1cnnn1)C1(Cl)CC1` (centres unmarked) [Ia-03, 2-(1-chlorocyclopropyl)-1-(2-chloro-3-pyridyl)-3-(tetrazol-1-yl)propan-2-ol], the pest or weed control at 500 ppm in the data set with Uromyces appendiculatus, in the data set on Sphaerotheca fuliginea and in the data set with Septoria tritici was 90 to 100% each time. Also, the chromatographic logP in data set [1] (setting [2]) was 1.72; in data set [1] (method [b]: LC-UV, neutral range, 0.001 molar ammonium acetate solution in water and acetonitrile as eluent), 1.68.
Turning to `OC(Cc1ccccc1F)(Cn1cnnn1)C1(Cl)CC1` (centres unmarked) [Ia-04, 2-(1-chlorocyclopropyl)-1-(2-fluorophenyl)-3-(tetrazol-1-yl)propan-2-ol], the pest or weed control at 500 ppm in the data set on Uromyces appendiculatus, with Sphaerotheca fuliginea and in the data set on Septoria tritici was 90 to 100% throughout. The compound also displayed a chromatographic logP in data set [1] (setting [2]) of 2.46.
Turning to `C=C(c1ccccc1F)C(O)(Cn1cnnn1)C1(Cl)CC1` (centres unmarked) [Ia-en-02, 2-(1-chlorocyclopropyl)-3-(2-fluorophenyl)-1-(tetrazol-1-yl)but-3-en-2-ol], the pest or weed control at 500 ppm in the data set on Uromyces appendiculatus, with Sphaerotheca fuliginea and in the data set with Septoria tritici was 90 to 100% in each case. Moreover, the chromatographic logP in data set [1] (setting [2]) worked out at 2.46.
Consider `COC(Cc1ccccc1Br)(Cn1cnnn1)C1(Cl)CC1` (centres unmarked) [Ia-70], for which the LogP in data set [1] was 3.23^[a].
For the compound `Cc1cccc(CC(O)(Cn2cnnn2)C2(F)CC2)c1` (centres unmarked) [Ia-28], the LogP in data set [1] is 2.42^[a].
Consider `C=C(c1cccc(Cl)c1F)C(O)(Cn1cnnn1)C1(Cl)CC1` (centres unmarked) [Ia-en-10], for which the LogP in data set [1] was 2.82^[a].
Same read-out and setting: under `COc1cccc(CC(O)(Cn2cnnn2)C2(F)CC2)c1` (centres unmarked) [Ia-26] stands 2.11^[a]; under `CC1(C(O)(Cc2ccccc2F)Cn2cnnn2)CC1` (centres unmarked) [Ia-68], 2.45^[a].
On the same count and under the same terms, the same measure for `OC(Cc1cncc(Cl)c1)(Cn1cnnn1)C1(Cl)CC1` (centres unmarked) [Ia-74]: 1.86^[a]; for `OC(Cc1cccc(F)c1F)(Cn1cnnn1)C1(Cl)CC1` (centres unmarked) [Ia-06]: 2.46^[a]; for `OC(Cc1cccc(Cl)c1)(Cn1cnnn1)C1(Cl)CC1` (centres unmarked) [Ia-47]: 2.82^[a].
With `COc1ccc(F)c(CC(O)(Cn2ncnn2)C2(Cl)CC2)c1F` (centres unmarked) [Ib-20], the LogP in data set [1] is 2.86^[a].
Same read-out and setting: under `Cc1ccccc1CC(O)(Cn1cnnn1)C1(Cl)CC1` (centres unmarked) [Ia-66] stands 2.77^[a]; under `CC1(C(O)(Cc2cccc(Br)c2)Cn2cnnn2)CC1` (centres unmarked) [Ia-63], 2.84^[a].
On the same count and under the same terms, the same measure for `C=C(c1ccccc1F)C(O)(Cn1ncnn1)C1(Cl)CC1` (centres unmarked) [Ib-en-01]: 2.96^[a]; for `COc1ccc(CC(O)(Cn2cnnn2)C2(F)CC2)cc1` (centres unmarked) [Ia-27]: 2.08^[a].
Consider `OC(Cc1cccc(Cl)c1F)(Cn1ncnn1)C1(Cl)CC1` (centres unmarked) [Ib-06], for which the LogP in data set [1] is 3.19^[a].
On to `OC(Cc1ccccc1C(F)(F)F)(Cn1cnnn1)C1(F)CC1` (centres unmarked) [Ia-76], for which the LogP in data set [1] was 2.71^[a].
Same read-out and setting: under `COc1cccc(CC(O)(Cn2cnnn2)C2(C)CC2)c1` (centres unmarked) [Ia-61] stands 2.37^[a].
Same read-out and setting: under `COc1c(F)ccc(CC(O)(Cn2cnnn2)C2(Cl)CC2)c1F` (centres unmarked) [Ia-50] stands 2.62^[a]; under `OC(Cc1ccc(F)c(F)c1F)(Cn1ncnn1)C1(Cl)CC1` (centres unmarked) [Ib-10], 3.11^[a].
Regarding `CC(c1ccccc1F)C(O)(Cn1cnnn1)C1(Cl)CC1` (single isomer, unassigned) [Ia-20, 2-(1-chlorocyclopropyl)-3-(2-fluorophenyl)-1-(tetrazol-1-yl)butan-2-ol], the pest or weed control at 500 ppm in the data set on Uromyces appendiculatus and in the data set on Sphaerotheca fuliginea was 90 to 100% each time. In data set [1] (setting [2]), the chromatographic logP was determined as 2.61.
As for `COc1ccc(CC(O)(Cn2cnnn2)C2(C)CC2)cc1` (centres unmarked) [Ia-34], the LogP in data set [1] is 2.35^[a].
Turning to `OC(Cc1ccccc1OC(F)(F)F)(Cn1cnnn1)C1(Cl)CC1` (centres unmarked) [Ia-32], the LogP in data set [1] is 3.06^[a].
As for `Cc1cccc(CC(O)(Cn2cnnn2)C2(C)CC2)c1` (centres unmarked) [Ia-65], the LogP in data set [1] was 2.73^[a].
Regarding `Cc1ccc(CC(O)(Cn2cnnn2)C2(F)CC2)cc1` (centres unmarked) [Ia-33], the LogP in data set [1] was 2.44^[a].
Same read-out and setting: the same measure for `COc1cc(F)c(CC(O)(Cn2cnnn2)C2(Cl)CC2)c(F)c1` (centres unmarked) [Ia-49]: 2.69^[a]; for `CC1(C(=O)Cn2ncnn2)CC1` [XVIb-02]: 1.05^[a]; for `OC(Cc1cc(Cl)ccc1F)(Cn1cnnn1)C1(Cl)CC1` (centres unmarked) [Ia-29]: 2.86^[a].
Still for that read-out and setting: the same measure for `OC(Cc1ccc(F)cc1F)(Cn1cnnn1)C1(Cl)CC1` (centres unmarked) [Ia-53]: 2.57^[a]; for `COc1ccc(F)c(CC(O)(Cn2cnnn2)C2(Cl)CC2)c1F` (centres unmarked) [Ia-46]: 2.51^[a]; for `OC(Cc1ccc(F)c(F)c1)(Cn1cnnn1)C1(Cl)CC1` (centres unmarked) [Ia-56]: 2.64^[a].

The chromatographic logP is lipophilicity estimated from chromatographic retention. Higher therefore signals higher lipophilicity.
